The values below come from ChEMBL document CHEMBL4229477, “Reevaluating the Substrate Specificity of the L-Type Amino Acid Transporter (LAT1)” (J Med Chem, 2018).

pIC50: −log10 of the molar value.

In the assay the target is Large neutral amino acids transporter small subunit 1 (Homo sapiens, UniProt Q01650). Put plainly: Cis-inhibition of human LAT1 expressed in TREx HEK293 cells at 200 uM assessed as inhibition of [3H]-gabapentin uptake preincubated for 3 mins at 37 degC followed by washing with choline buffer and measured after 3 hrs by scintillation counting analysis relative to BCH. It counts as cell-based.
Chain of Large neutral amino acids transporter small subunit 1 (Q01650 whole entry): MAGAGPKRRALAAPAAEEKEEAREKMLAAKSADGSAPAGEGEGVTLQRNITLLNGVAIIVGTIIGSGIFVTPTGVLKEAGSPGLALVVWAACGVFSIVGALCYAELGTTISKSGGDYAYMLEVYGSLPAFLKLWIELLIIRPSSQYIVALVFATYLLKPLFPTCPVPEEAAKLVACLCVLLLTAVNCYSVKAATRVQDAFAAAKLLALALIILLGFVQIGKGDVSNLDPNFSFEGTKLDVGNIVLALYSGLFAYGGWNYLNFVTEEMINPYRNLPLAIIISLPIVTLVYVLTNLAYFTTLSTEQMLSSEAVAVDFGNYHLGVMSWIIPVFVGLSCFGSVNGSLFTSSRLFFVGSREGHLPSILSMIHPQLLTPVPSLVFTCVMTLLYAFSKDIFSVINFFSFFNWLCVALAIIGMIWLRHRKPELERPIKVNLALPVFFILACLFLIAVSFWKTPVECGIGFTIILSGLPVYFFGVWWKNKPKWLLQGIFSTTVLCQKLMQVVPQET
As for `NCc1cccc(C[C@H](N)C(=O)O)c1`, the pIC50 was 3.33. For `CC[C@H](C)[C@@H](N)C(=O)O`, the pIC50 is less than 2.52. Consider `Cn1cnc(C[C@H](N)C(=O)O)c1`, for which the pIC50 was 3.72. `CC(C)C[C@H](N)C(=O)O` [LEUCINE]: the pIC50 was 4.07. With `N[C@@H](Cc1cccc(C(=O)O)c1)C(=O)O`, the pIC50 was 3.89.

Turning to `N[C@@H](Cc1cccc(CO)c1)C(=O)O`, the pIC50 was 4.08.

For the molecule `CSCC[C@@H](N)C(=O)O`, the pIC50 was 3.92.

For `N[C@@H](CC1CCCCC1)C(=O)O`, the pIC50 was 3.70. The result for `COC(=O)c1cc(C)cc(C[C@H](N)C(=O)O)c1` reads 4.02. As for `N[C@H](Cc1ccc(O)cc1)C(=O)O`, the pIC50 was 3.42. The result for `N[C@@H](Cc1c[nH]cn1)C(=O)O` [HISTIDINE] reads 4.70; that for `CC(C)[C@H](N)C(=O)O` [VALINE], 4.17. Turning to `CSCC[C@H](N)C(=O)O` [METHIONINE], the pIC50 is 3.77.

Take `CNC(=O)c1cccc(C[C@H](N)C(=O)O)c1`: the pIC50 is 4.02. Regarding `CC[C@H](C)[C@H](N)C(=O)O` [ISOLEUCINE], the pIC50 is 3.85. With `Cc1cc(C[C@H](N)C(=O)O)cc(C(=O)O)c1` the figure was 3.17. For the molecule `N[C@@H](Cc1ccncc1)C(=O)O`, the pIC50 was 4.00. Regarding `CC(=O)Nc1cccc(C[C@H](N)C(=O)O)c1`, the pIC50 was 3.96. `COC(=O)Cc1cccc(C[C@H](N)C(=O)O)c1`: the pIC50 is 4.12. With `COC(=O)c1cccc(C[C@@H](N)C(=O)O)c1` the figure was 3.82. On to `N[C@H](Cc1c[nH]c2ccccc12)C(=O)O` [D-TRYPTOPHAN], for which the pIC50 was 3.42.

`CC(=O)c1cccc(C[C@H](N)C(=O)O)c1`: the pIC50 is 4.04. Turning to `Nc1cccc(C[C@H](N)C(=O)O)c1`, the pIC50 is 4.00. With `COC(=O)c1cccc(C[C@H](N)C(=O)O)c1`, the negative-log IC50 (pIC50) is 4.44.

Regarding `N[C@@H](Cc1cccc(C(=O)OCCO)c1)C(=O)O`, the negative logarithm of the IC50 (pIC50) is 4.54.

With `N[C@@H](Cc1cn(Cc2ccccc2)cn1)C(=O)O`, the pIC50 was 3.77. In the case of `C[C@](N)(Cc1ccccc1)C(=O)O`, the pIC50 is 3.89.

For `N[C@@H](Cc1cccnc1)C(=O)O`, the pIC50 was 4.16. Consider `CSCC[C@](N)(Cc1ccccc1)C(=O)O`, for which the pIC50 is 3.62. With `N[C@@H](Cc1cccc(O)c1)C(=O)O`, the pIC50 was 3.89. Take `COC(=O)c1ccc(C[C@H](N)C(=O)O)cc1`: the negative logarithm of the IC50 (pIC50) was 3.59. Consider `N[C@@H](Cc1c[nH]c2ccccc12)C(=O)O` [TRYPTOPHAN], for which the pIC50 was 3.80. For the molecule `N[C@@H](Cc1ccccn1)C(=O)O`, the pIC50 is 3.80. For the molecule `N[C@@H](Cc1ccccc1)C(=O)O` [PHENYLALANINE], the pIC50 was 4.16. With `N[C@H](Cc1c[nH]cn1)C(=O)O` [D-HISTIDINE] the figure was 3.34; with `C[C@@](N)(Cc1ccccc1)C(=O)O`, 3.09. Take `CC(C)(C)OC(=O)c1cccc(C[C@H](N)C(=O)O)c1`: the pIC50 is 4.77.

Regarding `N[C@H](Cc1ccccc1)C(=O)O` [D-PHENYLALANINE], the pIC50 was 4.34. With `CC(C)[C@@H](N)C(=O)O`, the pIC50 was less than 1.30. The result for `N[C@@H](Cc1ccc(O)cc1)C(=O)O` [TYROSINE] reads 4.17. As to `CC(C)C[C@@H](N)C(=O)O` [D-LEUCINE], the negative-log IC50 (pIC50) was 3.66. For the molecule `N[C@H](CC1CCCCC1)C(=O)O`, the pIC50 is 3.59.
